Measurements taken from ChEMBL document CHEMBL3745641, “Discovery and Structure-Guided Optimization of Diarylmethanesulfonamide Disrupters of Glucokinase-Glucokinase Regulatory Protein (GK-GKRP) Binding: Strategic Use of a N → S (nN → σ*S-X) Interaction for Conformational Constraint” (J Med Chem, 2015).

Key:
[1] = Intrinsic clearance in rat liver microsomes after 30 mins; format: ADME; conditions: read-out: CLH
[2] = target: T1, Glucokinase regulatory protein (Mus musculus, UniProt Q91X44); experiment: Inhibition of glucokinase-GKRP binding interaction in mouse hepatocytes assessed as induction of glucokinase translocation; format: cell-based, Hepatocyte
T1 sequence (Q91X44 whole entry): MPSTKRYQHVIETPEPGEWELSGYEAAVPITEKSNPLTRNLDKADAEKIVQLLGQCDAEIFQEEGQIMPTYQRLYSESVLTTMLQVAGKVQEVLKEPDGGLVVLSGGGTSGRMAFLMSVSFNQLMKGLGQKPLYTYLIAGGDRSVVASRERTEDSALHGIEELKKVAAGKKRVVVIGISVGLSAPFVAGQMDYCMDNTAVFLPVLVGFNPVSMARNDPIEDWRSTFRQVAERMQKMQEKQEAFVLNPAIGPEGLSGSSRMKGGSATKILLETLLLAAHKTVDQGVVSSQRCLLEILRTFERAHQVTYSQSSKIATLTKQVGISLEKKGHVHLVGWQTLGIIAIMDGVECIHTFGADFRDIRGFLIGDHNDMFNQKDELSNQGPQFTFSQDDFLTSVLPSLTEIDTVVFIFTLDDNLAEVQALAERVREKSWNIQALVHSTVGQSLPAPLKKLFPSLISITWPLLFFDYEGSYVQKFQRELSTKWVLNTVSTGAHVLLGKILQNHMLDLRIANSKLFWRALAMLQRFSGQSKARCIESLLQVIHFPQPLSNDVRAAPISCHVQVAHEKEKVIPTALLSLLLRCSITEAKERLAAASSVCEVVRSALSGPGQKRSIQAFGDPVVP

[3] = Apparent permeability from apical to basolateral side in pig LLC-PK1 cells; format: ADME, cell-based, Sus scrofa
Hexokinase-4 [4] = target: T2, Hexokinase-4 (Homo sapiens, UniProt P35557); experiment: Effect on human glucokinase activity after 60 mins by luciferase-based luminescence assay in absence of human GKRP
T2 sequence (P35557 whole entry): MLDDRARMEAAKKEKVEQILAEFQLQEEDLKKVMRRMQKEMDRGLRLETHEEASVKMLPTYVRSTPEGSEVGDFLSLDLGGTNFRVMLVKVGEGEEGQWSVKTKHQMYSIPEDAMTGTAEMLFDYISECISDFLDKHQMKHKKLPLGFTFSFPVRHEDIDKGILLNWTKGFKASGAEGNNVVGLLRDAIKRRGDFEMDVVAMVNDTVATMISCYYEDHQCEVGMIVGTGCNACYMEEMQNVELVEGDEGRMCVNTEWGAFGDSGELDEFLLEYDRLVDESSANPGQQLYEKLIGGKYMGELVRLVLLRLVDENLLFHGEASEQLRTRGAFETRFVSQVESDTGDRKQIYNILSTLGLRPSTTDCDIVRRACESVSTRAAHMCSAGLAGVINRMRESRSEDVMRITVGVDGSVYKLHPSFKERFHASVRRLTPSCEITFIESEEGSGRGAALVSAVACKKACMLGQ

Hexokinase-4 [5] = target: T2, Hexokinase-4; experiment: Binding affinity to human glucokinase by surface plasmon resonance analysis
[6] = Plasma concentration in Sprague-Dawley rat at 10 mg/kg, po qd after 6 hrs; format: ADME, organism-based
[7] = Plasma concentration in Sprague-Dawley rat at 100 mg/kg, po qd after 6 hrs; format: ADME, organism-based
[8] = Plasma protein binding in rat by rapid equilibrium dialysis method; format: ADME, cell-free; conditions: read-out: PPB
[9] = Clearance in Sprague-Dawley rat at 2 mg/kg, iv; format: ADME, organism-based; conditions: in vivo
[10] = Volume of distribution at steady state in Sprague-Dawley rat at 2 mg/kg, iv; format: ADME, organism-based; conditions: in vivo, read-out: Vdss
[11] = Half life in Sprague-Dawley rat at 2 mg/kg, iv; format: ADME, organism-based; conditions: in vivo
[12] = Cmax in Sprague-Dawley rat at 10 mg/kg, po; format: ADME, organism-based; set-up: dose 10 mg/kg, route oral; conditions: in vivo
[13] = Tmax in Sprague-Dawley rat at 10 mg/kg, po; format: ADME, organism-based; conditions: in vivo
[14] = Oral bioavailability in Sprague-Dawley rat at 10 mg/kg; format: ADME, organism-based; conditions: in vivo
Plasma = experiment: Drug uptake in po dosed Sprague-Dawley rat plasma administered qd measured after 6 hrs; format: ADME, organism-based; conditions: in vivo
[15] = Plasma concentration in Sprague-Dawley rat at 10 mg/kg, po qd at 24 hrs; format: ADME, organism-based
[16] = Plasma concentration in Sprague-Dawley rat at 100 mg/kg, po qd at 24 hrs; format: ADME, organism-based
[17] = Drug uptake in db/db mouse blood at 10 mg/kg, po qd after 6 hrs; format: ADME, organism-based; conditions: whole blood, read-out: Drug uptake
[18] = Drug uptake in db/db mouse blood at 30 mg/kg, po qd after 6 hrs; format: ADME, organism-based; conditions: whole blood, read-out: Drug uptake
[19] = Drug uptake in db/db mouse blood at 100 mg/kg, po qd after 6 hrs; format: ADME, organism-based; conditions: whole blood, read-out: Drug uptake
Blood = experiment: Drug uptake in po dosed db/db mouse blood administered qd measured after 6 hrs; format: ADME, organism-based; conditions: in vivo
Mus musculus [20] = experiment: Antidiabetic activity in db/db mouse assessed as reduction in blood glucose level at 100 mg/kg, po qd after 3 hrs relative to control; format: functional; set-up: scale not given: the % may be the effect or the level left
Mus musculus [21] = experiment: Antidiabetic activity in db/db mouse assessed as reduction in blood glucose level at 100 mg/kg, po qd after 6 hrs relative to control; format: functional; set-up: scale not given: the % may be the effect or the level left
[22] = Drug uptake in db/db mouse blood at 100 mg/kg, po qd after 3 hrs; format: ADME, organism-based; conditions: whole blood, read-out: Drug uptake

| Compound | microsomal CLint [1] | EC50 [2] | Papp A→B [3] | other results |
| --- | --- | --- | --- | --- |
| O=S(=O)(N[C@@H](c1cc2ccccc2s1)c1ccccc1Cl)c1ccc2c(c1)OCC(F)(F)CO2 | > 399 µL/min/mg | > 12.5 µM | – | – |
| COc1ccc(S(=O)(=O)N[C@@H](c2cc3ccccc3s2)c2ccccc2Cl)cc1 | > 399 µL/min/mg | > 12.5 µM | – | – |
| O=S(=O)(NC(c1ccccc1)c1cc2ccccc2o1)c1ccc2c(c1)OCCCO2 (stereo not given) | – | – | – | EC50 (Hexokinase-4 [4]): > 100 µM; Kd (Hexokinase-4 [5]): > 20 µM |
| O=S(=O)(N[C@@H](c1nc2cccnc2s1)c1ccccc1Cl)c1ccc2c(c1)OCCCO2 | > 399 µL/min/mg | 3.3 µM | – | – |
| O=S(=O)(N[C@H](c1ccccc1)c1cc2ccccc2o1)c1ccc2c(c1)OCCCO2 | > 399 µL/min/mg | – | – | – |
| O=S(=O)(N[C@@H](c1cc2ccccc2s1)c1ccccc1Cl)c1ccc2c(c1)OCCO2 | > 399 µL/min/mg | > 12.5 µM | – | – |
| O=S(=O)(N[C@@H](c1cc2ccccc2s1)c1ccccc1Cl)c1ccccc1 | > 399 µL/min/mg | > 12.5 µM | – | – |
| O=S(=O)(N[C@@H](c1cc2ccccc2s1)c1ccccc1Cl)c1ccc2c(c1)OCC(O)CO2 (mixture of isomers) | 304 µL/min/mg | 4.3 µM | – | – |
| O=S(=O)(N[C@@H](c1cc2ccccc2s1)c1ccccc1Cl)c1ccc2c(c1)OCC(F)CO2 (mixture of isomers) | > 399 µL/min/mg | 4.1 µM | – | – |
| O=S(=O)(N[C@@H](c1cc2ccccc2s1)c1ccccc1Cl)c1ccc2c(c1)OCO2 | > 399 µL/min/mg | > 12.5 µM | – | – |
| O=S(=O)(N[C@@H](c1cc2ccccc2o1)c1ccccc1Cl)c1ccc2c(c1)OCCCO2 | > 399 µL/min/mg | 6.3 µM | – | – |
| O=S(=O)(N[C@@H](c1cc2ccccc2s1)c1ccccc1Cl)c1ccc2c(c1)OCCCO2 | > 399 µL/min/mg | – | – | Kd (Hexokinase-4 [5]): > 10 µM |

More lines, main results first:

| microsomal CLint [1] | EC50 [2] | Papp A→B [3] | Compound | other results |
| --- | --- | --- | --- | --- |
| 130 µL/min/mg | – | 11 ×10⁻⁶ cm/s | CC(C)(O)c1ccnc(-c2cccc3cc([C@H](NS(=O)(=O)C4CC4)c4nc(N)ccc4Cl)sc23)c1 | – |
| 67 µL/min/mg | – | 19 ×10⁻⁶ cm/s | CC(C)(O)c1ccnc(-c2cccc3cc([C@H](NS(=O)(=O)C4CC4)c4cc(N)ncc4Cl)sc23)c1 | – |
| < 14 µL/min/mg | – | < 1.8 ×10⁻⁶ cm/s | C[C@@](O)(c1ccnc(-c2cccc3cc([C@H](NS(=O)(=O)C4CC4)c4ccccc4Cl)sc23)c1)C(F)(F)F | – |
| 28 µL/min/mg | – | 19 ×10⁻⁶ cm/s | CC(C)(O)c1ccnc(-c2cccc3cc([C@H](NS(=O)(=O)C4CC4)c4nc(N)ncc4Cl)sc23)c1 | concentration at 6 h [6]: 2900 nM; concentration at 6 h [7]: 23000 nM; fraction unbound [8]: 0.01; clearance [9]: 4.67 mL/min/kg; Vd [10]: 1.3 L/kg; half-life [11]: 3 h; Cmax [12]: 1900 nM; Tmax [13]: 4.7 h; bioavailability [14]: 25%; Drug uptake (Plasma): Dose-dependent effect; concentration at 24 h [15]: 200 nM; concentration at 24 h [16]: 210 nM; concentration at 6 h [17]: 1200 nM; concentration at 6 h [18]: 4100 nM; concentration at 6 h [19]: 19000 nM; Drug uptake (Blood): Dose-dependent effect |
| < 14 µL/min/mg | – | – | C[C@](O)(c1cccc(-c2cccc3cc([C@H](NS(=O)(=O)C4CC4)c4ccccc4Cl)sc23)c1)C(F)(F)F | – |
| 26 µL/min/mg | – | 16 ×10⁻⁶ cm/s | CC(C)(O)c1ccnc(-c2cccc3cc([C@H](NS(=O)(=O)C4CC4)c4c(Cl)cnc(N)c4F)sc23)c1 | fraction unbound [8]: 0.01; clearance [9]: 6 mL/min/kg; Vd [10]: 1.6 L/kg; half-life [11]: 3.1 h; Cmax [12]: 2800 nM; Tmax [13]: 3.3 h; bioavailability [14]: 46%; Drug uptake (Plasma): Dose-dependent effect; concentration at 24 h [15]: 220 nM; concentration at 24 h [16]: 6300 nM; concentration at 6 h [19]: 21000 nM; Activity (Mus musculus [20]): 45%; Activity (Mus musculus [21]): 33%; concentration at 3 h [22]: 25000 nM |
| > 399 µL/min/mg | > 12.5 µM | – | O=S(=O)(N[C@@H](c1cc2ccccc2s1)c1ccccc1Cl)C1CC1 | – |
| < 14 µL/min/mg | – | 2.4 ×10⁻⁶ cm/s | C[C@](O)(c1ccnc(-c2cccc3cc([C@H](NS(=O)(=O)C4CC4)c4ccccc4Cl)sc23)c1)C(F)(F)F | – |
| 34 µL/min/mg | – | 7.5 ×10⁻⁶ cm/s | CC(C)(O)c1ccnc(-c2cccc3cc([C@H](NS(=O)(=O)C4CC4)c4ccccc4Cl)sc23)c1 | – |
| 18 µL/min/mg | – | 9.5 ×10⁻⁶ cm/s | CC(C)(O)c1ccnc(-c2cccc3cc([C@H](NS(=O)(=O)C4CC4)c4c(F)cccc4Cl)sc23)c1 | – |
| 28 µL/min/mg | – | 7.8 ×10⁻⁶ cm/s | CC(C)(O)c1ccnc(-c2cccc3cc([C@H](NS(=O)(=O)C4CC4)c4nc(N)c(F)cc4Cl)sc23)c1 | – |
| < 14 µL/min/mg | – | – | C[C@@](O)(c1cccc(-c2cccc3cc([C@H](NS(=O)(=O)C4CC4)c4ccccc4Cl)sc23)c1)C(F)(F)F | – |
